In ChEMBL document CHEMBL3046414, “Synthesis, anticancer, anti-HIV-1, and antimicrobial activity of some tricyclic triazino and triazolo[4,3-e]purine derivatives” (Med Chem Res, 2012):

Key:
[1] = system: SF-268; assay: Anticancer activity against Homo sapiens (human) SF268 cells assessed as cell growth at 100 uM after 48 hr by Alamar blue assay; format: functional; details: SF-268, 48 h, read-out: Activity
[2] = system: Malme-3M; assay: Cytotoxicity against Homo sapiens (human) MALME-3M cells after 48 hr by SRB assay; format: functional
[3] = system: MCF7; assay: Anticancer activity against Homo sapiens (human) MCF7 cells assessed as cell growth at 100 uM after 48 hr by Alamar blue assay; format: functional; details: MCF7, 48 h, read-out: Activity
[4] = system: NCI-H460; assay: Anticancer activity against Homo sapiens (human) NCI-H460 cells assessed as cell growth at 100 uM after 48 hr by Alamar blue assay; format: functional; details: NCI-H460, 48 h, read-out: Activity
[5] = system: Salmonella typhi; assay: Antimicrobial activity against Salmonella enterica subsp. enterica serovar Typhi ATCC 13311 after 24 hr by agar cup diffusion technique; format: functional
[6] = system: Bacillus spizizenii; assay: Antimicrobial activity against Bacillus subtilis subsp. spizizenii ATCC 6633 after 24 hr by agar cup diffusion technique; format: functional
[7] = Cytotoxicity against Homo sapiens (human) Breast cancer cell after 48 hr by SRB assay; format: functional; details: Cancer cell lines
[8] = Cytotoxicity against Homo sapiens (human) Prostate cancer cell after 48 hr by SRB assay; format: functional; details: Cancer cell lines
[9] = Cytotoxicity against Homo sapiens (human) Ovarian cancer cell after 48 hr by SRB assay; format: functional; details: Cancer cell lines
[10] = Cytotoxicity against Homo sapiens (human) Renal cancer cell after 48 hr by SRB assay; format: functional; details: Cancer cell lines
[11] = Cytotoxicity against Homo sapiens (human) CNS cancer cell after 48 hr by SRB assay; format: functional; details: Cancer cell lines
[12] = Cytotoxicity against Homo sapiens (human) Melanoma cell after 48 hr by SRB assay; format: functional
[13] = Cytotoxicity against Homo sapiens (human) Colon cancer cell after 48 hr by SRB assay; format: functional; details: Cancer cell lines
[14] = Cytotoxicity against Homo sapiens (human) Leukemia cell after 48 hr by SRB assay; format: functional
[15] = Cytotoxicity against Homo sapiens (human) NSCLC cell after 48 hr by SRB assay; format: functional
[16] = system: Aspergillus niger; assay: Antimicrobial activity against Aspergillus niger ATCC 16404 after 48 hr by agar cup diffusion technique; format: functional
[17] = system: Candida albicans; assay: Antimicrobial activity against Candida albicans NCTC 2708 after 48 hr by agar cup diffusion technique; format: functional
[18] = system: Saccharomyces cerevisiae; assay: Antimicrobial activity against Saccharomyces cerevisiae ATCC 9763 after 48 hr by agar cup diffusion technique; format: functional
[19] = system: Proteus vulgaris; assay: Antimicrobial activity against Proteus vulgaris ATCC 49132 after 24 hr by agar cup diffusion technique; format: functional
[20] = system: Escherichia coli; assay: Antimicrobial activity against Escherichia coli 5933 after 24 hr by agar cup diffusion technique; format: functional
[21] = system: Pseudomonas aeruginosa; assay: Antimicrobial activity against Pseudomonas aeruginosa ATCC 9027 after 24 hr by agar cup diffusion technique; format: functional
[22] = system: CCRF-CEM; assay: Cytotoxicity against Homo sapiens (human) CCRF-CEM cells after 48 hr by SRB assay; format: functional
[23] = system: CAKI-1; assay: Cytotoxicity against Homo sapiens (human) CAKI-1 cells after 48 hr by SRB assay; format: functional; details: CAKI-1, 48 h
[24] = system: UO-31; assay: Cytotoxicity against Homo sapiens (human) UO31 cells after 48 hr by SRB assay; format: functional; details: UO-31, 48 h
[25] = system: A498; assay: Cytotoxicity against Homo sapiens (human) A498 cells after 48 hr by SRB assay; format: functional; details: A498, 48 h
[26] = system: T47D; assay: Cytotoxicity against Homo sapiens (human) T47D cells after 48 hr by SRB assay; format: functional
[27] = system: ACHN; assay: Cytotoxicity against Homo sapiens (human) ACHN cells after 48 hr by SRB assay; format: functional
[28] = system: HOP-92; assay: Cytotoxicity against Homo sapiens (human) HOP92 cells after 48 hr by SRB assay; format: functional; details: HOP-92, 48 h
[29] = system: NCI-H226; assay: Cytotoxicity against Homo sapiens (human) NCI-H226 cells after 48 hr by SRB assay; format: functional; details: NCI-H226, 48 h
[30] = system: SK-MEL-5; assay: Cytotoxicity against Homo sapiens (human) SK-MEL-5 cells after 48 hr by SRB assay; format: functional; details: SK-MEL-5, 48 h
[31] = system: Staphylococcus aureus; assay: Antimicrobial activity against Staphylococcus aureus NCTC 4163 after 24 hr by agar cup diffusion technique; format: functional
[32] = system: Proteus vulgaris; assay: Antimicrobial activity against Proteus vulgaris ATCC 49132 after 24 hr by two-fold serial dilution method; format: functional; details: ATCC 49132, 24 h
[33] = system: CCRF-CEM; assay: Cytotoxicity against Homo sapiens (human) CEM cells by XTT assay; format: cell-based
[34] = system: Human immunodeficiency virus 1; assay: Antiviral activity against Human immunodeficiency virus 1 infected CEM cells assessed as inhibition of virus-induced cytopathic effect at 2 X 10^-5 M by XTT assay; format: functional; details: Human immunodeficiency virus 1, CCRF-CEM
[35] = system: Human immunodeficiency virus 1; assay: Antiviral activity against Human immunodeficiency virus 1 infected CEM cells assessed as inhibition of virus-induced cytopathic effect at 2 X 10^-4 M by XTT assay; format: functional; details: Human immunodeficiency virus 1, CCRF-CEM
[36] = system: Aspergillus niger; assay: Antimicrobial activity against Aspergillus niger ATCC 16404 after 48 hr by two-fold serial dilution method; format: functional; details: ATCC 16404, 48 h
[37] = system: Pseudomonas aeruginosa; assay: Antimicrobial activity against Pseudomonas aeruginosa ATCC 9027 after 24 hr by two-fold serial dilution method; format: functional; details: ATCC 9027, 24 h
[38] = system: Staphylococcus aureus; assay: Antimicrobial activity against Staphylococcus aureus NCTC 4163 after 24 hr by two-fold serial dilution method; format: functional; details: NCTC 4163, 24 h

Cn1c(=O)c2nc3[nH]nc(C#N)c(=N)n3c2n(C)c1=O
growth at 100 µM [1]: 47% | GI50 [2]: 25.2 µM | growth at 100 µM [3]: 14% | growth at 100 µM [4]: 62% | inhibition zone (IZ) [5]: 12 mm | inhibition zone (IZ) [6]: 14 mm | GI50 [7]: 91.6 µM | TGI [7]: 100 µM | GI50 [8]: 86.3 µM | TGI [8]: 100 µM | GI50 [9]: 97.9 µM | TGI [9]: 100 µM | GI50 [10]: 72.2 µM | TGI [10]: 100 µM | GI50 [11]: 98 µM | TGI [11]: 100 µM | GI50 [12]: 81.6 µM | TGI [12]: 96.9 µM | GI50 [13]: 100 µM | TGI [13]: 100 µM | GI50 [14]: 94.6 µM | TGI [14]: 100 µM | GI50 [15]: 87.3 µM | TGI [15]: 100 µM | inhibition zone (IZ) [16]: 12 mm | inhibition zone (IZ) [17]: 12 mm | inhibition zone (IZ) [18]: 14 mm | inhibition zone (IZ) [19]: 19 mm | inhibition zone (IZ) [20]: 14 mm | inhibition zone (IZ) [21]: 18 mm | GI50 [22]: 67.8 µM | GI50 [23]: 51.7 µM | GI50 [24]: 50.6 µM | GI50 [25]: 51.4 µM | GI50 [26]: 32.9 µM | GI50 [27]: 44.3 µM | GI50 [28]: 31.8 µM | GI50 [29]: 54 µM | GI50 [30]: 45.9 µM

CCOC(=O)c1n[nH]c2nc3c(=O)n(C)c(=O)n(C)c3n2c1=N
growth at 100 µM [1]: 98% | growth at 100 µM [3]: 93% | growth at 100 µM [4]: 99% | inhibition zone (IZ) [6]: 14 mm | inhibition zone (IZ) [31]: 16 mm | inhibition zone (IZ) [17]: 17 mm | inhibition zone (IZ) [18]: 15 mm | MIC [32]: < 100 µg/mL | inhibition zone (IZ) [19]: 22 mm | inhibition zone (IZ) [20]: 15 mm | inhibition zone (IZ) [21]: 20 mm

CC(=O)c1n[nH]c2nc3c(=O)n(C)c(=O)n(C)c3n2c1=O
inhibition zone (IZ) [6]: 14 mm | IC50 [33]: > 200 µM | inhibition zone (IZ) [17]: 13 mm | inhibition zone (IZ) [18]: 13 mm | MIC [32]: < 100 µg/mL | inhibition zone (IZ) [19]: 23 mm | inhibition zone (IZ) [20]: 14 mm | inhibition at 20 µM [34]: 1.43%

Cn1c(=O)c2nc3[nH]nc(C#N)c(=O)n3c2n(C)c1=O
IC50 [33]: > 200 µM | inhibition zone (IZ) [31]: 14 mm | inhibition zone (IZ) [17]: 15 mm | inhibition zone (IZ) [18]: 14 mm | MIC [32]: < 100 µg/mL | inhibition zone (IZ) [19]: 22 mm | inhibition zone (IZ) [20]: 12 mm | inhibition zone (IZ) [21]: 16 mm | inhibition at 200 µM [35]: 10.9%

Cn1c(=O)c2nc3[nH]nc(C(=O)O)c(=O)n3c2n(C)c1=O
MIC [36]: < 200 µg/mL | inhibition zone (IZ) [6]: 14 mm | IC50 [33]: > 200 µM | inhibition zone (IZ) [31]: 14 mm | inhibition zone (IZ) [16]: 20 mm | inhibition zone (IZ) [17]: 13 mm | inhibition zone (IZ) [18]: 14 mm | MIC [32]: < 200 µg/mL | inhibition zone (IZ) [19]: 21 mm | inhibition zone (IZ) [20]: 13 mm | inhibition zone (IZ) [21]: 16 mm | inhibition at 20 µM [34]: 3.73%

Cn1c(=O)c2[nH]c(/N=N/c3c(N)n[nH]c3N)nc2n(C)c1=O
inhibition zone (IZ) [6]: 10 mm | IC50 [33]: > 200 µM | inhibition zone (IZ) [17]: 11 mm | inhibition zone (IZ) [18]: 12 mm | inhibition zone (IZ) [19]: 14 mm | inhibition at 200 µM [35]: 30.5%

Cn1c(=O)c2c(n(C)c1=O)n1c(-c3ccccc3)nnc1n2C
growth at 100 µM [1]: 90% | growth at 100 µM [3]: 84% | growth at 100 µM [4]: 98% | inhibition zone (IZ) [5]: 11 mm | inhibition zone (IZ) [6]: 15 mm | inhibition zone (IZ) [16]: 16 mm | inhibition zone (IZ) [17]: 12 mm | inhibition zone (IZ) [18]: 15 mm | inhibition zone (IZ) [19]: 19 mm | inhibition zone (IZ) [20]: 14 mm | inhibition zone (IZ) [21]: 17 mm

Cn1c(=O)c2c(n(C)c1=O)n1c(-c3ccc(Cl)cc3)nnc1n2C
growth at 100 µM [1]: 90% | growth at 100 µM [3]: 82% | growth at 100 µM [4]: 95% | inhibition zone (IZ) [6]: 13 mm | inhibition zone (IZ) [31]: 22 mm | inhibition zone (IZ) [17]: 12 mm | inhibition zone (IZ) [18]: 14 mm | MIC [32]: < 100 µg/mL | MIC [37]: < 200 µg/mL | MIC [38]: < 100 µg/mL | inhibition zone (IZ) [19]: 25 mm | inhibition zone (IZ) [20]: 12 mm | inhibition zone (IZ) [21]: 21 mm
